In patent publication US11467161B2, “Biomarkers of therapeutic responsiveness” (Meso Scale Technologies, LLC., priority 2013, dated 2022):
Read-outs that look alike come from different tables or passages of the source.

Assays:
[1] = system: A375 xenograft; experiment: Biomarker levels in A375 control melanoma xenograft tumor extracts (MSD multiplex immunoassay); format: in vivo, mice
Procedure: (§1) A panel of biomarkers was measured in Melanoma and RCC xenograft tissue extracts from mice, described in Table 4. Xenografts were generated using the listed melanoma and RCC cell lines, and tumors harvested and extracted following the indicated treatments. SKMEL5 cells were used with or without transfection to express constitutively active GSK3β. A375 cells were used with or without transfection to express GSK3β specific shRNA under a doxycycline-controlled promoter.
(§2) Multiplex immunoassay kits were used for detection of total and/or phosphorylated biomarkers (supplied by Meso Scale Discovery, a division of Meso Scale Diagnostics, LLC, Rockville, Md.). Levels of each biomarker were determined by calibration of the assays with were either purified calibrator proteins or using control cell lysates from appropriately treated cultured cell lines (e.g., cells subjected to conditions known to induce or reduce levels of a specific biomarker). Calibration curves were derived by testing serial dilutions of the calibrator lysates or purified proteins. Levels of biomarkers in test samples were back-calculated from the calibration curves and were expressed in terms of wt. (or arbitrary Units for phospho-protein markers) of protein per weight of tissue extract (for purified calibrators) or in terms of weight of crude control lysate protein per well (for lysate calibrators). Titrations of tumor extracts were carried out to determine the linearity of the assay response to sample dilution and to select the sample dilution that would be appropriate to use for each assay panel.
(§3) In general, the assay format was as follows, with minor alterations for specific assay panels as indicated in the assay protocols provided with each assay kit (supplied by Meso Scale Discovery, Rockville, Md.): (1) block MSD MULTI-SPOT® plate for 1 hour with appropriate MSD® blocking solution and wash; (2) add 25 μl assay diluent to each well, if specified; (3) add 25 μl calibrator, or sample (diluted as appropriate) to each well; (4) incubate with shaking for 1-3 hours (time as specified) and wash the well; (5) add 25 μl labeled detection antibody solution to each well; (6) incubate with shaking for 1-2 hours (time as specified) and wash the well; (7) add 150 μl MSD read buffer to each well; (8) read plate immediately on MSD SECTOR® Imager 6000 Reader (supplied by Meso Scale Discovery, Rockville, Md.).
(§4) Tumor tissue extracts were assayed at 5-10 μg/well total protein per well. Samples from each set were assayed on the same plate. […] The signals obtained are not normalized to any housekeeping tissue factor, which may serve to improve animal-to-animal reproducibility, but are normalized to total lysate protein.
(§5) Samples that were not treated with drug are designated as (−) and those treated with drug as (+).

[2] = system: A375 (GSKshRNA) xenograft; experiment: Biomarker levels in A375 GSK3β shRNA melanoma xenograft tumor extracts (MSD multiplex immunoassay); format: in vivo, mice
Procedure: as §1, §2, §3, §4, §5

[3] = system: A375 (GSKshRNA) xenograft + doxycycline; experiment: Biomarker levels in A375 shRNA + Dox melanoma xenograft tumor extracts (MSD multiplex immunoassay); format: in vivo, mice; details: A375 shRNA + Dox tumor extract, sorafenib (+), mean
Procedure: as §1, §2, §3, §4, §5

[4] = system: SKMEL5 xenograft; experiment: Biomarker levels in SKMEL5 wt melanoma xenograft tumor extracts (MSD multiplex immunoassay); format: in vivo, mice
Procedure: as §1, §2, §3, §4, §5

[5] = system: SKMEL5 (active GSK3beta) xenograft; experiment: Biomarker levels in SKMEL5 GSK3β+ (active GSK3beta) melanoma xenograft tumor extracts (MSD multiplex immunoassay); format: in vivo, mice
Procedure: as §1, §2, §3, §4, §5

[6] = system: 786-0 xenograft; experiment: Biomarker levels in 786-0 RCC xenograft tumor extracts (MSD multiplex immunoassay); format: in vivo, mice
Procedure: as §1, §2, §3, §4, §5

[7] = system: A375 cells; details: cited from earlier work
[8] = system: A498 xenograft; experiment: Biomarker levels in A498 RCC xenograft tumor extracts (MSD multiplex immunoassay); format: in vivo, mice; details: A498 tumor extract, sunitinib (+), mean
Procedure: as §1, §2, §3, §4, §5

[9] = A375 control tumor extract, sorafenib (+), mean
[10] = wild type A375 tumors, sorafenib
[11] = A375 GSK3β shRNA tumor extract, sorafenib (+), mean
[12] = SKMEL5 wt tumor extract, sorafenib (+), mean
[13] = SKMEL5 GSK3β+ tumor extract, sorafenib (+), mean
[14] = 786-0 tumor extract, sunitinib (+), mean

CNC(=O)c1cc(Oc2ccc(NC(=O)Nc3ccc(Cl)c(C(F)(F)F)c3)cc2)ccn1 [sorafenib]
Akt [1, 9]: 5.3 pg/ug pr | GSK3β [1, 9]: 84 pg/ug pr | Rb [1, 9]: 3.45 pg/ug pr | SRFP-1 [1, 9]: 1.30 pg/ug pr | Wnt3A [1, 9]: 23.2 pg/ug pr | c-Met [1, 9]: 0.23 ng/ug pr | dephospho β-catenin [1, 9]: 7.3 Units/ug pr | phospho-Rb [1, 9]: 0.21 Units/ug pr | phospho-cMet [1, 9]: 3.6 pg lys cal/ug pr | phosphor-Akt [1, 9]: 8.5 Units/ug pr | β-catenin [1, 9]: 32 pg/ug pr | change in total Rb levels with treatment ([1]; control A375, sorafenib, most samples at or below detection limits): increase in its levels | change in phospho-GSK3β with treatment [1, 10]: no changes | change in total GSK3β with treatment [1, 10]: no changes | Akt [2, 11]: 2.2 pg/ug pr | GSK3β [2, 11]: 50 pg/ug pr | Rb [2, 11]: 0.96 pg/ug pr | SRFP-1 [2, 11]: 0.35 pg/ug pr | VEGF [2, 11]: 8.5 pg/ug pr | Wnt3A [2, 11]: 12.0 pg/ug pr | c-Met [2, 11]: 0.16 ng/ug pr | dephospho β-catenin [2, 11]: 3.0 Units/ug pr | phospho-GSK3β [2, 11]: 11.1 Units/ug pr | phospho-Rb [2, 11]: 0.13 Units/ug pr | phospho-cMet [2, 11]: 1.8 pg lys cal/ug pr | phosphor-Akt [2, 11]: 5.9 Units/ug pr | β-catenin [2, 11]: 16 pg/ug pr | change in levels of active β-catenin with treatment ([2]; shRNA transfected A375 tumors, sorafenib): reduction in levels of active β-catenin | Akt [3]: 1.6 pg/ug pr | GSK3β [3]: 24 pg/ug pr | Rb [3]: 0.27 pg/ug pr | SRFP-1 [3]: 0.22 pg/ug pr | VEGF [3]: 2.6 pg/ug pr | c-Met [3]: 0.10 ng/ug pr | dephospho β-catenin [3]: 2.9 Units/ug pr | phospho-GSK3β [3]: 6.6 Units/ug pr | phospho-Rb [3]: 0.10 Units/ug pr | phospho-cMet [3]: 1.4 pg lys cal/ug pr | phosphor-Akt [3]: 6.1 Units/ug pr | β-catenin [3]: 21 pg/ug pr | change in E-cadherin levels with treatment ([4]; SKMEL5 not transfected, sorafenib): no additional effect | change in phospho-Akt levels with treatment ([4]; SKMEL5 tumors, sorafenib): unchanged phospho-Akt levels | change in total Akt levels with treatment ([4]; SKMEL5 tumors, sorafenib): reduced levels of total Akt | Akt [4, 12]: 22.3 pg/ug pr | E-Cadherin [4, 12]: 10.9 pg/ug pr | GSK3β [4, 12]: 162 pg/ug pr | Rb [4, 12]: 0.23 pg/ug pr | SRFP-1 [4, 12]: 0.08 pg/ug pr | VEGF [4, 12]: 0.8 pg/ug pr | Wnt3A [4, 12]: 6.2 pg/ug pr | c-Met [4, 12]: 0.51 ng/ug pr | dephospho β-catenin [4, 12]: 7.4 Units/ug pr | phospho-GSK3β [4, 12]: 44.0 Units/ug pr | phospho-Rb [4, 12]: 0.62 Units/ug pr | phospho-cMet [4, 12]: 15.7 pg lys cal/ug pr | β-catenin [4, 12]: 31 pg/ug pr | change in active (dephospho) β-catenin with treatment ([4]; wt SKMEL5 tumors, sorafenib): decreased | change in GSK3β phosphorylation with treatment ([4]; wt SKMEL5 tumors, sorafenib, total cellular protein): A reduction in GSK3β phosphorylation was not observed | Akt [5, 13]: 32.4 pg/ug pr | E-Cadherin [5, 13]: 0.0 pg/ug pr | GSK3β [5, 13]: 88 pg/ug pr | Rb [5, 13]: 0.63 pg/ug pr | SRFP-1 [5, 13]: 0.22 pg/ug pr | VEGF [5, 13]: 7.2 pg/ug pr | c-Met [5, 13]: 0.59 ng/ug pr | dephospho β-catenin [5, 13]: 12.6 Units/ug pr | phospho-GSK3β [5, 13]: 7.9 Units/ug pr | phospho-Rb [5, 13]: 0.53 Units/ug pr | phospho-cMet [5, 13]: 7.2 pg lys cal/ug pr | phosphor-Akt [5, 13]: 14.3 Units/ug pr | β-catenin [5, 13]: 39 pg/ug pr | change in E-cadherin levels with treatment ([5]; SKMEL5 transfected (active GSK3β), sorafenib): no additional effect | change in VEGF levels with treatment ([6]; 786-0, treated vs untreated): increased levels of VEGF | sorafenib-induced apoptosis ([7]; A375 cells, down-modulation of GSK3β with shRNA): increase sorafenib-induced apoptosis | sorafenib-induced apoptosis ([7]; wild type A375 cells, endogenous active GSK3β): resistance to sorafenib-induced apoptosis

CCN(CC)CCNC(=O)c1c(C)[nH]c(/C=C2\C(=O)Nc3ccc(F)cc32)c1C [sunitinib]
Akt [8]: 6.3 pg/ug pr | E-Cadherin [8]: 0.0 pg/ug pr | GSK3β [8]: 24 pg/ug pr | Rb [8]: 0.00 pg/ug pr | SRFP-1 [8]: 0.15 pg/ug pr | VEGF [8]: 5.8 pg/ug pr | Wnt3A [8]: 8.8 pg/ug pr | c-Met [8]: 1.47 ng/ug pr | dephospho β-catenin [8]: 3.4 Units/ug pr | phospho-GSK3β [8]: 14.2 Units/ug pr | phospho-Rb [8]: 0.08 Units/ug pr | phospho-cMet [8]: 73.6 pg lys cal/ug pr | phosphor-Akt [8]: 59.1 Units/ug pr | β-catenin [8]: 34 pg/ug pr | Akt [6, 14]: 9.3 pg/ug pr | E-Cadherin [6, 14]: 0.1 pg/ug pr | GSK3β [6, 14]: 61 pg/ug pr | Rb [6, 14]: 6.48 pg/ug pr | SRFP-1 [6, 14]: 0.23 pg/ug pr | VEGF [6, 14]: 38.3 pg/ug pr | Wnt3A [6, 14]: 11.8 pg/ug pr | c-Met [6, 14]: 1.26 ng/ug pr | dephospho β-catenin [6, 14]: 23.3 Units/ug pr | phospho-GSK3β [6, 14]: 5.9 Units/ug pr | phospho-Rb [6, 14]: 0.14 Units/ug pr | phospho-cMet [6, 14]: 31.5 pg lys cal/ug pr | phosphor-Akt [6, 14]: 78.5 Units/ug pr | β-catenin [6, 14]: 82 pg/ug pr
